Test results as given in US20080280879A1, “SUBSTITUTED HETEROCYCLIC DERIVATIVES AND THEIR PHARMACEUTICAL USE AND COMPOSITIONS” (priority 2007, published 2008).
In brackets after ≈: the same amount, converted by molar mass.

How the values were obtained:
Assay type in all cases: cell-based, Staphylococcus aureus
[1] = test system: Staph aureus 1095 MRSA; assay: MIC, microtiter broth dilution (CLSI M7-A7), Assay 1, Table 12 column A, no serum; conditions: Assay 1, no serum; for MIC: Staphylococcus aureus, MRSA
Experimental: (§1) The assays described herein include a panel of bacterial isolates of Staphylococcus aureus. Assay 1 comprises the strains noted in Columns A through E, and Assay 2 comprises the strains noted in Columns F through H. The assays are performed in microtiter trays according to Methods for Dilution Antimicrobial Susceptibility Tests for Bacteria that Grow Aerobically; Approved Standard-7th edition (M7-A7) and interpreted according to the Performance Standards for Antimicrobial Susceptibility Testing; 16th Informational Supplement (M100-S16) published by Clinical Laboratory Standards Institute (CLSI). The antibacterial activity is presented in the form of a minimum inhibitory concentration (MIC) value in μg/ml format. The MIC value represents the lowest concentration of drug measured which prevented macroscopically visible growth under the conditions and specific doses tested. The compounds were initially dissolved in DMSO as 30 mM stocks and diluted accordingly to adjust to a concentration of 10 mg/ml or the compounds were dissolved in DMSO at a concentration of 10 mg/ml. For assessment of activity in the presence of human serum, S. aureus 1146 and S. aureus 1031 were inoculated into Mueller-Hinton Broth with 50% pooled inactivated human serum. In some cases, compounds were tested more than once in a particular assay. Where noted, the MIC value shown in Table 12 represents the geometric mean of the data from multiple runs.
(§2) It should be understood that the data in columns A-H represents MIC data in μg/ml and the notation “<=” means ‘less than or equal to’.

[2] = test system: Staph aureus 1146; assay: MIC, microtiter broth dilution (CLSI M7-A7), Assay 1, Table 12 column B, no serum; conditions: for MIC: Staphylococcus aureus, 1146, Staph aureus 1146, Assay 1, no serum; for MIC, column B: Staph aureus 1146, Assay 1, no serum
Experimental: as §1, §2

[3] = test system: Staph aureus 1146; assay: MIC in Mueller-Hinton Broth with 50% pooled inactivated human serum, Assay 1, Table 12; conditions: for MIC: Staphylococcus aureus, 1146, Staph aureus 1146, Assay 1, 50% human serum, read-out: MIC, column C; for MIC, column C: Staph aureus 1146, Assay 1, 50% human serum
Experimental: as §1, §2

[4] = test system: Staph aureus 2811; assay: MIC, microtiter broth dilution (CLSI M7-A7), Assay 1, Table 12 column D, no serum; conditions: for MIC: Staphylococcus aureus, 2811, Staph aureus 2811, Assay 1, no serum; for MIC, column D: Staph aureus 2811, Assay 1, no serum
Experimental: as §1, §2

[5] = test system: Staph aureus 2812; assay: MIC, microtiter broth dilution (CLSI M7-A7), Assay 1, Table 12 column E, no serum; conditions: for MIC: Staphylococcus aureus, 2812, Staph aureus 2812, Assay 1, no serum; for MIC, column E: Staph aureus 2812, Assay 1, no serum
Experimental: as §1, §2

COc1ccc(C2CC(N3CC[C@@H](CC[C@H](O)c4ccnc5ccc(OC)cc45)[C@@H](C(=O)O)C3)C2)c(F)c1 (stereo partly drawn) [Example 220, (3R,4R)-1-[3-(2-fluoro-4-methoxyphenyl)cyclobutyl]-4-[(3S)-3-hydroxy-3-(6-methoxyquinolin-4-yl)propyl]piperidine-3-carboxylic acid]
MIC [1]: 64 µg/mL (≈ 122 µM)
MIC [2]: 32 µg/mL (≈ 61.2 µM)
MIC [3]: > 64 µg/mL
MIC [4]: 16 µg/mL (≈ 30.6 µM)
MIC [5]: 32 µg/mL (≈ 61.2 µM)

(3R,4R)-1-(1-cyclobutylazetidin-3-yl)-4-[3-hydroxy-3-(6-methoxyquinolin-4-yl)propyl]piperidine-3-carboxylic acid [Example 130]
MIC, column A [1]: >64 µg/mL
MIC, column B [2]: >64 µg/mL
MIC, column C [3]: >64 µg/mL
MIC, column D [4]: >64 µg/mL
MIC, column E [5]: >64 µg/mL

COc1ccc2nccc(C(O)CC[C@@H]3CCN(CC4CC(c5ccccc5)C4)C[C@@H]3C(=O)O)c2c1 (mixture of isomers) [Example 177, (3R,4R)-4-[3-hydroxy-3-(6-methoxyquinolin-4-yl)propyl]-1-[(3-phenylcyclobutyl)methyl]piperidine-3-carboxylic acid]
MIC [1]: 8 µg/mL
MIC [2]: 4 µg/mL
MIC [3]: 32 µg/mL
MIC [4]: 4 µg/mL
MIC [5]: 8 µg/mL

COc1ccc2nccc([C@@H](O)CC[C@@H]3CCN(C4CC(c5cc(C)ccc5F)C4)C[C@@H]3C(=O)O)c2c1 (stereo partly drawn) [Example 61, (3R,4R)-1-[3-(2-fluoro-5-methylphenyl)cyclobutyl]-4-[(3S)-3-hydroxy-3-(6-methoxyquinolin-4-yl)propyl]piperidine-3-carboxylic acid]
MIC [1]: 0.125 µg/mL (≈ 0.247 µM)
MIC [2]: ≤ 0.0625 µg/mL
MIC [3]: 2 µg/mL (≈ 3.95 µM)
MIC [4]: ≤ 0.0625 µg/mL
MIC [5]: ≤ 0.0625 µg/mL

COc1ccc2nccc([C@@H](O)CC[C@@H]3CCN(C4CC(c5cccc(C#N)c5)C4)C[C@@H]3C(=O)O)c2c1 (stereo partly drawn) [Example 223, (3R,4R)-1-[3-(3-cyanophenyl)cyclobutyl]-4-[(3S)-3-hydroxy-3-(6-methoxyquinolin-4-yl)propyl]piperidine-3-carboxylic acid]
MIC [1]: 16 µg/mL (≈ 32 µM)
MIC [2]: 4 µg/mL (≈ 8.01 µM)
MIC [3]: 32 µg/mL (≈ 64 µM)
MIC [4]: 4 µg/mL (≈ 8.01 µM)
MIC [5]: 8 µg/mL (≈ 16 µM)

COc1ccc2ncc(Cl)c(CCNC3(C(=O)O)CCCN(C4CC(c5cccc(C)c5)C4)CC3)c2c1 (stereo not shown) [Example 153, 4-{[2-(3-chloro-6-methoxyquinolin-4-yl)ethyl]amino}-1-[3-(3-methylphenyl)cyclobutyl]azepane-4-carboxylic acid]
MIC [1]: 4 µg/mL (≈ 7.66 µM)
MIC [2]: 1 µg/mL (≈ 1.92 µM)
MIC [3]: 2 µg/mL (≈ 3.83 µM)
MIC [4]: 0.5 µg/mL (≈ 0.958 µM)
MIC [5]: 0.5 µg/mL (≈ 0.958 µM)

COc1ccc2nccc(CCCC3(C(=O)O)CCN(C4CC(c5ccccc5)C4)CC3)c2c1 (stereo not shown) [Example 93, 4-[3-(6-methoxyquinolin-4-yl)propyl]-1-(3-phenylcyclobutyl)piperidine-4-carboxylic acid]
MIC [1]: 2 µg/mL (≈ 4.36 µM)
MIC [2]: 2 µg/mL (≈ 4.36 µM)
MIC [3]: > 64 µg/mL
MIC [4]: 2 µg/mL (≈ 4.36 µM)
MIC [5]: 1 µg/mL (≈ 2.18 µM)

COc1ccc2nccc([C@@H](O)CC[C@@H]3CCN(C4CC(c5cccc(F)c5C)C4)C[C@@H]3C(=O)O)c2c1 (stereo partly drawn) [Example 57, (3R,4R)-1-[3-(3-fluoro-2-methylphenyl)cyclobutyl]-4-[(3S)-3-hydroxy-3-(6-methoxyquinolin-4-yl)propyl]piperidine-3-carboxylic acid]
MIC [1]: 0.5 µg/mL (≈ 0.987 µM)
MIC [2]: 0.25 µg/mL (≈ 0.493 µM)
MIC [3]: 8 µg/mL (≈ 15.8 µM)
MIC [4]: 0.25 µg/mL (≈ 0.493 µM)
MIC [5]: 0.25 µg/mL (≈ 0.493 µM)

COc1ccc2ncc(Cl)c(C(O)CC[C@@H]3CCN(C4CC(c5cc(F)ccc5F)C4)C[C@@H]3C(=O)O)c2c1 (stereo partly drawn) [Example 210, (3R,4R)-4-[3-(3-chloro-6-methoxyquinolin-4-yl)-3-hydroxypropyl]-1-[3-(2,5-difluorophenyl)cyclobutyl]piperidine-3-carboxylic acid]
MIC, column A [1]: <0.0625 µg/mL
MIC, column B [2]: <0.0625 µg/mL
MIC, column C [3]: 16.0 µg/mL (≈ 29.4 µM)
MIC, column D [4]: <0.0625 µg/mL
MIC, column E [5]: <0.0625 µg/mL

COc1ccc2nccc(C(O)CC[C@@H]3CCN(C4CN(C5CCCCC5)C4)C[C@@H]3C(=O)O)c2c1 (stereo partly drawn) [Example 131, (3R,4R)-1-(1-cyclohexylazetidin-3-yl)-4-[3-hydroxy-3-(6-methoxyquinolin-4-yl)propyl]piperidine-3-carboxylic acid]
MIC [1]: > 64 µg/mL
MIC [2]: > 64 µg/mL
MIC [3]: > 64 µg/mL
MIC [4]: > 64 µg/mL
MIC [5]: > 64 µg/mL

COc1ccc2ncc(Cl)c([C@@H](O)CNC3(C(=O)O)CCCN(C4CC(c5ccccc5)C4)CC3)c2c1 (single isomer, unassigned) [Example 147]
MIC [1]: 8 µg/mL (≈ 15.3 µM)
MIC [2]: 1 µg/mL (≈ 1.91 µM)
MIC [3]: 4 µg/mL (≈ 7.63 µM)
MIC [4]: 1 µg/mL (≈ 1.91 µM)
MIC [5]: 1 µg/mL (≈ 1.91 µM)

COc1ccc2nccc(C(=O)CC[C@@H]3CCN(C4CC(c5ccccc5)C4)C[C@@H]3C(=O)O)c2c1 (stereo partly drawn) [Example 135, (3R,4R)-4-[3-(6-Methoxy-quinolin-4-yl)-3-oxo-propyl]-1-(3-phenyl-cyclobutyl)-piperidine-3-carboxylic acid]
MIC [1]: 0.25 µg/mL (≈ 0.529 µM)
MIC [2]: 0.25 µg/mL (≈ 0.529 µM)
MIC [3]: 8 µg/mL (≈ 16.9 µM)
MIC [4]: 0.125 µg/mL (≈ 0.265 µM)
MIC [5]: 0.25 µg/mL (≈ 0.529 µM)

COc1ccc2nccc(C(O)CC[C@@H]3CCN(C4CC(Cc5cccc(F)c5)C4)C[C@@H]3C(=O)O)c2c1 (stereo partly drawn) [Example 192, (3R,4R)-1-[3-(3-fluorobenzyl)cyclobutyl]-4-[3-hydroxy-3-(6-methoxyquinolin-4-yl)propyl]piperidine-3-carboxylic acid]
MIC [1]: 4 µg/mL (≈ 7.9 µM)
MIC [2]: 1 µg/mL (≈ 1.97 µM)
MIC [3]: 32 µg/mL (≈ 63.2 µM)
MIC [4]: 1 µg/mL (≈ 1.97 µM)
MIC [5]: 2 µg/mL (≈ 3.95 µM)

COc1ccc2nccc(C(O)CC[C@@H]3CCN(C4CN(C5CCOCC5)C4)C[C@@H]3C(=O)O)c2c1 (stereo partly drawn) [Example 128, (3R,4R)-4-[3-hydroxy-3-(6-methoxyquinolin-4-yl)propyl]-1-[1-(tetrahydro-2H-pyran-4-yl)azetidin-3-yl] piperidine-3-carboxylic acid]
MIC [1]: > 64 µg/mL
MIC [2]: > 64 µg/mL
MIC [3]: > 64 µg/mL
MIC [4]: > 64 µg/mL
MIC [5]: > 64 µg/mL

COc1ccc2nccc(C(O)CC[C@@H]3CCN(C4CC5(CCCC5)C4)C[C@@H]3C(=O)O)c2c1 (stereo partly drawn) [Example 55, (3R,4R)-4-[3-hydroxy-3-(6-methoxyquinolin-4-yl)propyl]-1-spiro[3.4]oct-2-ylpiperidine-3-carboxylic acid]
MIC [1]: 4 µg/mL (≈ 8.84 µM)
MIC [2]: 1 µg/mL (≈ 2.21 µM)
MIC [3]: 32 µg/mL (≈ 70.7 µM)
MIC [4]: 2 µg/mL (≈ 4.42 µM)
MIC [5]: 2 µg/mL (≈ 4.42 µM)

COc1ccc2ncc(Cl)c(C(O)CC[C@@H]3CCN(C4CC(c5c(F)cccc5F)C4)C[C@@H]3C(=O)O)c2c1 (stereo partly drawn) [Example 213, (3R,4R)-4-[3-(3-chloro-6-methoxyquinolin-4-yl)-3-hydroxypropyl]-1-[3-(2,6-difluorophenyl)cyclobutyl]piperidine-3-carboxylic acid]
MIC, column A [1]: <0.0625 µg/mL
MIC, column B [2]: <0.0625 µg/mL
MIC, column C [3]: 0.500 µg/mL (≈ 0.917 µM)
MIC, column D [4]: <0.0625 µg/mL
MIC, column E [5]: <0.0625 µg/mL

COc1ccc2ncc(F)c(C(O)COC3(C(=O)O)CCN(C4CC(c5ccccc5)C4)CC3)c2c1 (stereo not shown) [Example 146, 4-(2-(3-fluoro-6-methoxyquinolin-4-yl)-2-hydroxyethoxy)-1-(3-phenylcyclobutyl)piperidine-4-carboxylic acid]
MIC [1]: 32 µg/mL (≈ 64.7 µM)
MIC [2]: 16 µg/mL (≈ 32.4 µM)
MIC [3]: > 64 µg/mL
MIC [4]: 32 µg/mL (≈ 64.7 µM)
MIC [5]: 32 µg/mL (≈ 64.7 µM)
